We go through twelve compounds from ChEMBL document CHEMBL1201862, “PubChem BioAssay data set” (2004).

Some test systems named below: A498; ACHN; CAKI-1; CCRF-CEM; COLO 205; EKVX; HL-60; HOP-62; HT-29; LOX IMVI; NCI-H522; OVCAR-3; OVCAR-5; SF-539; SK-MEL-2; SK-MEL-5; UACC-257; UO-31; IGROV-1; HOP-92.
Common to all, as to assay: NCI-60 cell line screen, 48 h

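Five compound concentrations were applied to cells in 96-well plates for 48 hours; endpoints were derived by simple linear interpolation of the resulting dose-response curve. Here, GI50 denotes the concentration required for 50% inhibition of growth.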 The source made the active and inactive calls. Cut-off read from the data, not from the text of the source: active = GI50 up to about 1.1 µM and inactive = higher.

Turning to `CN(C)c1ccc(/C=C/C(=O)N[C@@H]2C(=O)N3[C@@H]2SC(C)(C)[C@@H]3C(=O)O)cc1`, the GI50 with A498, with ACHN, in the assay on CAKI-1, with CCRF-CEM, with COLO 205 and in the assay with EKVX was > 100 µM (inactive) in each case. For the same compound, the GI50 with HL-60, in the assay with HOP-62, with HT-29, in the assay on LOX IMVI, in the assay on NCI-H522 and in the assay with OVCAR-3 was > 100 µM (inactive) in each case. Moreover, the GI50 with OVCAR-5, with SF-539, with SK-MEL-2, in the assay with SK-MEL-5, with UACC-257 and in the assay with UO-31 was > 100 µM (inactive) in each case.

With `CC(=O)/N=C1/N(/C=C2\C(=O)Oc3ccccc3C2=O)C(=O)/C(=C/c2ccc(NC(C)=O)cc2)N1C`, the GI50 in the assay on A498, with ACHN, with CAKI-1, in the assay with CCRF-CEM, in the assay on COLO 205 and in the assay on EKVX was > 100 µM (inactive) throughout. For the same compound, the GI50 was > 100 µM (inactive) in the assay on HL-60; > 100 µM (inactive) with HOP-62; > 100 µM (inactive) in the assay with HT-29; > 100 µM (inactive) in the assay with IGROV-1; > 100 µM (inactive) with LOX IMVI; 47.9 µM (inactive) with NCI-H522. The GI50 was 76 µM (inactive) in the assay with OVCAR-3; > 100 µM (inactive) with OVCAR-5; > 100 µM (inactive) with SF-539; > 100 µM (inactive) with SK-MEL-2; > 100 µM (inactive) with SK-MEL-5; > 100 µM (inactive) with UACC-257.

Turning to `CC(C)(C)OC(=O)NC1CCCC1=O` (centres undefined), the GI50 was 8.3 µM (inactive) in the assay with A498; > 100 µM (inactive) with ACHN; > 100 µM (inactive) with CAKI-1; > 100 µM (inactive) in the assay with CCRF-CEM; > 100 µM (inactive) with EKVX; > 100 µM (inactive) with HOP-62. The GI50 in the assay with HOP-92, in the assay on HT-29, in the assay with LOX IMVI, in the assay on NCI-H522, in the assay on OVCAR-3 and with OVCAR-5 was > 100 µM (inactive) throughout. The GI50 in the assay with SF-539, in the assay with SK-MEL-2, in the assay with SK-MEL-5, with UACC-257 and with UO-31 was > 100 µM (inactive) throughout.

Consider `Cc1nc2[nH]ncn2c(=O)c1CCO`, for which the GI50 in the assay with A498, in the assay on ACHN, in the assay on CAKI-1, in the assay with CCRF-CEM, with COLO 205 and with EKVX was > 10 µM (inactive) in each case. The GI50 with HL-60, in the assay on HOP-62, with HT-29, with IGROV-1, with LOX IMVI and in the assay on NCI-H522 was > 10 µM (inactive) each time. Besides, the GI50 in the assay on OVCAR-5, in the assay on SF-539, with SK-MEL-2, in the assay with SK-MEL-5 and with UO-31 was > 10 µM (inactive) each time.

Regarding `CCOc1c(/N=N/c2ccccc2Cl)c(-c2ccccc2)nn1C(=S)S`, the GI50 is 48.1 µM (inactive) in the assay on ACHN; 18.7 µM (inactive) in the assay with CAKI-1; 21.4 µM (inactive) in the assay with COLO 205; 30.9 µM (inactive) in the assay with EKVX; 33.6 µM (inactive) in the assay on HL-60; > 100 µM (inactive) with HOP-62. For the same compound, the GI50 in the assay with HOP-92 was 54 µM (inactive); in the assay on HT-29 it was 25.2 µM (inactive); in the assay on IGROV-1, 42.6 µM (inactive); in the assay on LOX IMVI it was 19.9 µM (inactive); in the assay on NCI-H522 it was 25.2 µM (inactive); with OVCAR-3 it was 25 µM (inactive). Further, the GI50 was 61 µM (inactive) with OVCAR-5; 14.2 µM (inactive) in the assay on SF-539; 34.8 µM (inactive) in the assay with SK-MEL-2; 21.2 µM (inactive) with SK-MEL-5; 50.6 µM (inactive) with UACC-257; 35.6 µM (inactive) in the assay on UO-31.

Consider `C=CS(=O)(=O)CCN1CC1`, for which the GI50 in the assay on ACHN, in the assay on CAKI-1, with CCRF-CEM, in the assay with COLO 205, with HL-60 and in the assay on HOP-62 was > 10 µM (inactive) in each case. Also, the GI50 in the assay on HOP-92, with HT-29, with IGROV-1, in the assay on LOX IMVI, in the assay with NCI-H522 and in the assay on OVCAR-3 was > 10 µM (inactive) throughout. Moreover, the GI50 in the assay on OVCAR-5, with SF-539, with SK-MEL-5 and in the assay on UACC-257 was > 10 µM (inactive) each time.

On to `Cc1c(N(Cc2ccccc2)Cc2ccccc2)nc(S(C)(=O)=O)nc1S(C)(=O)=O`, for which the GI50 with ACHN was 4.68 µM (inactive); in the assay on CAKI-1, 8.07 µM (inactive); in the assay on CCRF-CEM, 2.2 µM (inactive); in the assay on EKVX, 1.53 µM (inactive); with HL-60 it was 2.09 µM (inactive); with HOP-62, 14.7 µM (inactive). In addition, the GI50 in the assay with HOP-92 was 3.56 µM (inactive); in the assay on HT-29, 1.94 µM (inactive); in the assay with IGROV-1, 1.74 µM (inactive); in the assay on LOX IMVI, 1.84 µM (inactive); with NCI-H522 it was 1.73 µM (inactive); in the assay with OVCAR-3, 1.86 µM (inactive). In addition, the GI50 was 7.4 µM (inactive) with OVCAR-5; 13 µM (inactive) with SF-539; 11.9 µM (inactive) in the assay with SK-MEL-2; 12 µM (inactive) in the assay on SK-MEL-5; 2.09 µM (inactive) in the assay on UACC-257; 12.1 µM (inactive) in the assay on UO-31.

For the compound `O=C(O)/C(=C\c1ccncc1)c1cccc2ccccc12`, the GI50 in the assay on CCRF-CEM, in the assay on COLO 205, in the assay on EKVX, with HL-60, in the assay with HOP-62 and in the assay on HOP-92 was > 100 µM (inactive) throughout. The GI50 in the assay on HT-29, in the assay with IGROV-1, in the assay on LOX IMVI, in the assay with NCI-H522, in the assay with OVCAR-3 and with OVCAR-5 was > 100 µM (inactive) each time. Further, the GI50 is > 100 µM (inactive) in the assay with SF-539, > 100 µM (inactive) in the assay on SK-MEL-2, > 100 µM (inactive) in the assay with SK-MEL-5 and 0.145 µM (active) in the assay with UACC-257.

As to `Cc1ccc(S(=O)(=O)N2CCCSCC2)cc1`, the GI50 with A498, in the assay on ACHN, in the assay on CCRF-CEM, with COLO 205, with HOP-92 and in the assay on HT-29 was > 100 µM (inactive) each time. The GI50 is > 100 µM (inactive) in the assay with LOX IMVI; > 100 µM (inactive) with NCI-H522; > 100 µM (inactive) in the assay on SK-MEL-5; > 100 µM (inactive) in the assay with UACC-257; 35.2 µM (inactive) with UO-31.

As for `CCc1c(-c2ccccc2)[nH]c2ccccc2c1=O`, the GI50 in the assay with A498 was 33.4 µM (inactive); in the assay with ACHN, 36.7 µM (inactive); with CAKI-1, 19.8 µM (inactive); with CCRF-CEM, 72.4 µM (inactive); with EKVX, 81.1 µM (inactive); in the assay with HL-60, > 100 µM (inactive). Further, the GI50 with HOP-62 was 47.4 µM (inactive); in the assay with HT-29, 57.7 µM (inactive); in the assay on LOX IMVI, 48.1 µM (inactive); in the assay with OVCAR-3 it was 54.1 µM (inactive); with OVCAR-5, > 100 µM (inactive); in the assay on SF-539, 50.5 µM (inactive). The GI50 in the assay on SK-MEL-2 is 71.1 µM (inactive); with SK-MEL-5, 27.4 µM (inactive); with UACC-257, 64.7 µM (inactive); with UO-31, 0.0412 µM (active).

As for `O=C(NNC(=O)c1nsc2ccccc12)c1ccc(Cl)cc1`, the GI50 is > 100 µM (inactive) in the assay with ACHN; 19 µM (inactive) in the assay on CCRF-CEM; 23.7 µM (inactive) in the assay on COLO 205; 18.2 µM (inactive) in the assay with EKVX; 23.7 µM (inactive) in the assay on HL-60; 18.3 µM (inactive) with HOP-62. In addition, the GI50 in the assay with HOP-92 was 17.1 µM (inactive); in the assay on HT-29, 20.3 µM (inactive); in the assay on IGROV-1, 34.5 µM (inactive); in the assay on LOX IMVI, 18.1 µM (inactive); in the assay with OVCAR-3, 17.2 µM (inactive); with OVCAR-5, 20.4 µM (inactive). The GI50 in the assay with SF-539 was 17 µM (inactive); in the assay with SK-MEL-2, 22.3 µM (inactive); in the assay on SK-MEL-5 it was 23.8 µM (inactive); in the assay on UACC-257, 21.2 µM (inactive); in the assay on UO-31 it was 18.9 µM (inactive).

Turning to `Brc1cccc(Nc2ncnc3sc4c(c23)CCC(Nc2cccc(Br)c2)C4)c1` (centres undefined), the GI50 in the assay with ACHN is > 100 µM (inactive); in the assay on CAKI-1, 79.8 µM (inactive); with CCRF-CEM it was > 100 µM (inactive); in the assay with COLO 205 it was > 100 µM (inactive); with EKVX it was > 100 µM (inactive); in the assay with HOP-62, > 100 µM (inactive). The GI50 is 26.2 µM (inactive) in the assay on HOP-92; > 100 µM (inactive) in the assay on HT-29; 71.3 µM (inactive) in the assay on IGROV-1; > 100 µM (inactive) in the assay on LOX IMVI; > 100 µM (inactive) in the assay on NCI-H522; > 100 µM (inactive) in the assay with OVCAR-3. Further, the GI50 in the assay on OVCAR-5, in the assay with SK-MEL-2, with SK-MEL-5, in the assay with UACC-257 and in the assay on UO-31 was > 100 µM (inactive) each time.
